Test: tail vein bleeding time
Assay type: in vivo, mouse
Settings: GMI-1271 alone, 20/kg IP BID; non-treated controls 53.8±7.5; not significantly elevated

CC[C@H]1C[C@@H](C(=O)NCCNC(=O)CCOCCOCCOCCOCCOCCOCCOCCOCCOCCOCCOCCOC)C[C@@H](O[C@@H]2O[C@H](CO)[C@H](O)[C@H](O[C@@H](CC3CCCCC3)C(=O)[O-])[C@H]2NC(C)=O)[C@@H]1O[C@@H]1O[C@@H](C)[C@@H](O)[C@@H](O)[C@@H]1O.[Na+] [GMI-1271]
tail bleeding time: 67.00 ± 44 s
